Measurements: the supplement of paper PMC10307832

Key:
Assay in all cases: relative viability (nuclei count vs DMSO), 5 days (fraction); higher = more cells survive
Shikonin + Trametinib = compound: CC(C)=CC[C@@H](O)C1=CC(=O)c2c(O)ccc(O)c2C1=O [Shikonin] + CC(=O)Nc1cccc(-n2c(=O)n(C3CC3)c(=O)c3c(Nc4ccc(I)cc4F)n(C)c(=O)c(C)c32)c1 [Trametinib] (partner 0.02 µM)
Procedure, shortened: (§1)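 Cells from lung cancer lines were seeded into 1536-well plates and, one day later, dosed by pin tool. Treatments were either a single drug or a fixed dose of an anchor drug with five library-drug doses (not always all listed) in √10 steps. After 5 days, nuclei were stained in a one-step fixation (final 0.05% Triton X-100, 1% formaldehyde, 1 ug/ml Hoechst) and counted on 4× images, and relative viability is the treated-to-vehicle nuclei ratio, as the median of duplicate plates.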

Shikonin + Luminespib = compound: CC(C)=CC[C@@H](O)C1=CC(=O)c2c(O)ccc(O)c2C1=O [Shikonin] + CCNC(=O)c1noc(-c2cc(C(C)C)c(O)cc2O)c1-c1ccc(CN2CCOCC2)cc1 [Luminespib] (partner 0.01 µM)
Procedure, shortened: as §1

[1] = compound: CC(C)N(CCCNC(=O)Nc1ccc(C(C)(C)C)cc1)C[C@H]1O[C@@H](n2ccc3c(N)ncnc32)[C@H](O)[C@@H]1O + CS(=O)(=O)N1CCN(Cc2cc3nc(-c4cccc5[nH]ncc45)nc(N4CCOCC4)c3s2)CC1 [Pictilisib] (partner 1 µM)
Procedure, shortened: as §1

[2] = compound: CC(C)N(CCCNC(=O)Nc1ccc(C(C)(C)C)cc1)C[C@H]1O[C@@H](n2ccc3c(N)ncnc32)[C@H](O)[C@@H]1O + O=C(c1cc(Cc2n[nH]c(=O)c3ccccc23)ccc1F)N1CCN(C(=O)C2CC2)CC1 [Olaparib] (partner 8 µM)
Procedure, shortened: as §1

Cell Line: SK-LU-1
- relative viability (Shikonin + Trametinib; first compound 0.01 µM): 0.46
- relative viability (Shikonin + Trametinib; first compound 0.1 µM): 0.485
- relative viability (Shikonin + Trametinib; first compound 0.3162 µM): 0.513
- relative viability (Shikonin + Trametinib; first compound 1 µM): 0.449
- relative viability (Shikonin + Luminespib; first compound 0.01 µM): 0.212
- relative viability (Shikonin + Luminespib; first compound 0.1 µM): 0.215
- relative viability (Shikonin + Luminespib; first compound 0.3162 µM): 0.198
- relative viability (Shikonin + Luminespib; first compound 1 µM): 0.187
- relative viability ([1]; first compound 0.08 µM): 0.593
- relative viability ([1]; first compound 0.253 µM): 0.506
- relative viability ([1]; first compound 0.8 µM): 0.621
- relative viability ([1]; first compound 2.53 µM): 0.662
- relative viability ([1]; first compound 8 µM): 0.538
- relative viability ([2]; first compound 0.08 µM): 0.424
- relative viability ([2]; first compound 0.253 µM): 0.448
- relative viability ([2]; first compound 0.8 µM): 0.516
- relative viability ([2]; first compound 2.53 µM): 0.552
- relative viability ([2]; first compound 8 µM): 0.469

Cell Line: SK-MES-1
- relative viability (Shikonin + Trametinib; first compound 0.01 µM): 0.595
- relative viability (Shikonin + Trametinib; first compound 0.1 µM): 0.57
- relative viability (Shikonin + Trametinib; first compound 0.3162 µM): 0.575
- relative viability (Shikonin + Trametinib; first compound 1 µM): 0.71
- relative viability (Shikonin + Luminespib; first compound 0.01 µM): 0.969
- relative viability (Shikonin + Luminespib; first compound 0.1 µM): 0.677
- relative viability (Shikonin + Luminespib; first compound 0.3162 µM): 0.833
- relative viability (Shikonin + Luminespib; first compound 1 µM): 0.698
- relative viability ([1]; first compound 0.08 µM): 0.359
- relative viability ([1]; first compound 0.253 µM): 0.363
- relative viability ([1]; first compound 0.8 µM): 0.304
- relative viability ([1]; first compound 2.53 µM): 0.33
- relative viability ([1]; first compound 8 µM): 0.342
- relative viability ([2]; first compound 0.08 µM): 0.83
- relative viability ([2]; first compound 0.253 µM): 0.811
- relative viability ([2]; first compound 0.8 µM): 0.734
- relative viability ([2]; first compound 2.53 µM): 0.713
- relative viability ([2]; first compound 8 µM): 0.662

Cell Line: SW 1573
- relative viability (Shikonin + Trametinib; first compound 0.01 µM): 0.615
- relative viability (Shikonin + Trametinib; first compound 0.1 µM): 0.502
- relative viability (Shikonin + Trametinib; first compound 0.3162 µM): 0.502
- relative viability (Shikonin + Trametinib; first compound 1 µM): 0.112
- relative viability (Shikonin + Luminespib; first compound 0.01 µM): 0.494
- relative viability (Shikonin + Luminespib; first compound 0.1 µM): 0.201
- relative viability (Shikonin + Luminespib; first compound 0.3162 µM): 0.232
- relative viability (Shikonin + Luminespib; first compound 1 µM): 0.0929
- relative viability ([1]; first compound 0.08 µM): 0.656
- relative viability ([1]; first compound 0.253 µM): 0.438
- relative viability ([1]; first compound 0.8 µM): 0.546
- relative viability ([1]; first compound 2.53 µM): 0.55
- relative viability ([1]; first compound 8 µM): 0.585
- relative viability ([2]; first compound 0.08 µM): 0.464
- relative viability ([2]; first compound 0.8 µM): 0.517
- relative viability ([2]; first compound 2.53 µM): 0.441
- relative viability ([2]; first compound 8 µM): 0.53
